Data: ChEMBL document CHEMBL4004803, “Syntheses and antibacterial activity of soluble 9-bromo substituted indolizinoquinoline-5,12-dione derivatives” (Eur J Med Chem, 2017)
In brackets after ≈: the same amount, converted by molar mass.

What was measured:
Format in all cases: functional
Staphylococcus aureus [1] = test: Antibacterial activity against methicillin-resistant Staphylococcus aureus 221022 clinical isolate after 20 to 24 hrs by two-fold microdilution method
Staphylococcus aureus [2] = test: Antibacterial activity against methicillin-resistant Staphylococcus aureus 120827 clinical isolate after 20 to 24 hrs by two-fold microdilution method
Staphylococcus aureus [3] = test: Antibacterial activity against methicillin-resistant Staphylococcus aureus GLH14 clinical isolate after 20 to 24 hrs by two-fold microdilution method
Staphylococcus aureus [4] = test: Antibacterial activity against methicillin-resistant Staphylococcus aureus 1216052 clinical isolate after 20 to 24 hrs by two-fold microdilution method
Staphylococcus aureus [5] = test: Antibacterial activity against methicillin-resistant Staphylococcus aureus 131215 clinical isolate after 20 to 24 hrs by two-fold microdilution method
Staphylococcus aureus [6] = test: Antibacterial activity against methicillin-resistant Staphylococcus aureus 1024004-2 clinical isolate after 20 to 24 hrs by two-fold microdilution method
Staphylococcus aureus [7] = test: Antibacterial activity against methicillin-resistant Staphylococcus aureus 110328-1 clinical isolate after 20 to 24 hrs by two-fold microdilution method
Staphylococcus aureus [8] = test: Antibacterial activity against methicillin-resistant Staphylococcus aureus 921026 clinical isolate after 20 to 24 hrs by two-fold microdilution method
Staphylococcus aureus [9] = test: Antibacterial activity against methicillin-resistant Staphylococcus aureus 503025 clinical isolate after 20 to 24 hrs by two-fold microdilution method
Staphylococcus aureus [10] = test: Antibacterial activity against methicillin-resistant Staphylococcus aureus 829034 clinical isolate after 20 to 24 hrs by two-fold microdilution method
Staphylococcus aureus [11] = test: Antibacterial activity against methicillin-resistant Staphylococcus aureus 20339 clinical isolate after 20 to 24 hrs by two-fold microdilution method
Staphylococcus aureus [12] = test: Antibacterial activity against methicillin-resistant Staphylococcus aureus 102849 clinical isolate after 20 to 24 hrs by two-fold microdilution method
Staphylococcus aureus [13] = test: Antibacterial activity against methicillin-resistant Staphylococcus aureus 110834 clinical isolate after 20 to 24 hrs by two-fold microdilution method
Staphylococcus aureus [14] = test: Antibacterial activity against methicillin-resistant Staphylococcus aureus clinical isolate after 20 to 24 hrs by two-fold microdilution method
Staphylococcus aureus [15] = test: Antibacterial activity against methicillin-resistant Staphylococcus aureus 304243 clinical isolate after 20 to 24 hrs by two-fold microdilution method
Staphylococcus aureus [16] = test: Antibacterial activity against methicillin-resistant Staphylococcus aureus 908046 clinical isolate after 20 to 24 hrs by two-fold microdilution method
Staphylococcus aureus [17] = test: Antibacterial activity against methicillin-resistant Staphylococcus aureus 1029025 clinical isolate after 20 to 24 hrs by two-fold microdilution method
Staphylococcus aureus [18] = test: Antibacterial activity against methicillin-resistant Staphylococcus aureus 614019 clinical isolate after 20 to 24 hrs by two-fold microdilution method
Staphylococcus aureus [19] = test: Antibacterial activity against methicillin-resistant Staphylococcus aureus 1108204 clinical isolate after 20 to 24 hrs by two-fold microdilution method
Staphylococcus aureus [20] = test: Antibacterial activity against methicillin-resistant Staphylococcus aureus 1113041 clinical isolate after 20 to 24 hrs by two-fold microdilution method
Staphylococcus aureus [21] = test: Antibacterial activity against methicillin-resistant Staphylococcus aureus 109016 clinical isolate after 20 to 24 hrs by two-fold microdilution method
Staphylococcus aureus [22] = test: Antibacterial activity against methicillin-resistant Staphylococcus aureus 111423 clinical isolate after 20 to 24 hrs by two-fold microdilution method
Staphylococcus aureus [23] = test: Antibacterial activity against methicillin-resistant Staphylococcus aureus 1012029 clinical isolate after 20 to 24 hrs by two-fold microdilution method
Staphylococcus aureus [24] = test: Antibacterial activity against methicillin-resistant Staphylococcus aureus 1107027 clinical isolate after 20 to 24 hrs by two-fold microdilution method
Staphylococcus aureus [25] = test: Antibacterial activity against methicillin-resistant Staphylococcus aureus 221014 clinical isolate after 20 to 24 hrs by two-fold microdilution method
Streptococcus pyogenes = test: Antibacterial activity against Streptococcus pyogenes ATCC 19615 after 20 to 24 hrs by two-fold microdilution method
Staphylococcus aureus [26] = test: Antibacterial activity against […] Staphylococcus aureus ATCC 25923 after 20 to 24 hrs by two-fold microdilution method
Staphylococcus aureus [27] = test: Antibacterial activity against methicillin-resistant Staphylococcus aureus 202045 clinical isolate after 20 to 24 hrs by two-fold microdilution method
Staphylococcus aureus [28] = test: Antibacterial activity against methicillin-resistant Staphylococcus aureus 10281-2 clinical isolate after 20 to 24 hrs by two-fold microdilution method
Staphylococcus aureus [29] = test: Antibacterial activity against methicillin-resistant Staphylococcus aureus 1023043 clinical isolate after 20 to 24 hrs by two-fold microdilution method
Staphylococcus aureus [30] = test: Antibacterial activity against methicillin-resistant Staphylococcus aureus 121969 clinical isolate after 20 to 24 hrs by two-fold microdilution method
Staphylococcus aureus [31] = test: Antibacterial activity against methicillin-resistant Staphylococcus aureus 112106 clinical isolate after 20 to 24 hrs by two-fold microdilution method
Staphylococcus aureus [32] = test: Antibacterial activity against methicillin-resistant Staphylococcus aureus 1026021 clinical isolate after 20 to 24 hrs by two-fold microdilution method
Staphylococcus aureus [33] = test: Antibacterial activity against methicillin-resistant Staphylococcus aureus 10844 clinical isolate after 20 to 24 hrs by two-fold microdilution method
Staphylococcus aureus [34] = test: Antibacterial activity against methicillin-resistant Staphylococcus aureus 531220 clinical isolate after 20 to 24 hrs by two-fold microdilution method
Staphylococcus aureus [35] = test: Antibacterial activity against methicillin-resistant Staphylococcus aureus 123152 clinical isolate after 20 to 24 hrs by two-fold microdilution method
Staphylococcus aureus [36] = test: Antibacterial activity against methicillin-resistant Staphylococcus aureus 122710-2 clinical isolate after 20 to 24 hrs by two-fold microdilution method
Staphylococcus aureus [37] = test: Antibacterial activity against methicillin-resistant Staphylococcus aureus 20106-2 clinical isolate after 20 to 24 hrs by two-fold microdilution method
Staphylococcus aureus [38] = test: Antibacterial activity against methicillin-resistant Staphylococcus aureus 121026 clinical isolate after 20 to 24 hrs by two-fold microdilution method
Staphylococcus aureus [39] = test: Antibacterial activity against methicillin-resistant Staphylococcus aureus GLH15 clinical isolate after 20 to 24 hrs by two-fold microdilution method
Staphylococcus aureus [40] = test: Antibacterial activity against methicillin-resistant Staphylococcus aureus 110432 clinical isolate after 20 to 24 hrs by two-fold microdilution method
Staphylococcus aureus [41] = test: Antibacterial activity against methicillin-resistant Staphylococcus aureus 831024 clinical isolate after 20 to 24 hrs by two-fold microdilution method
Staphylococcus aureus [42] = test: Antibacterial activity against methicillin-resistant Staphylococcus aureus 111625 clinical isolate after 20 to 24 hrs by two-fold microdilution method
Staphylococcus aureus [43] = test: Antibacterial activity against methicillin-resistant Staphylococcus aureus 822030 clinical isolate after 20 to 24 hrs by two-fold microdilution method
Staphylococcus aureus [44] = test: Antibacterial activity against methicillin-resistant Staphylococcus aureus 414244 clinical isolate after 20 to 24 hrs by two-fold microdilution method
Staphylococcus aureus [45] = test: Antibacterial activity against methicillin-resistant Staphylococcus aureus 122820-2 clinical isolate after 20 to 24 hrs by two-fold microdilution method
Staphylococcus aureus [46] = test: Antibacterial activity against methicillin-resistant Staphylococcus aureus 118038 clinical isolate after 20 to 24 hrs by two-fold microdilution method

O=C1c2cccnc2C(=O)c2c1c(C(=O)OCCCCCCN1CCOCC1)c1ccc(Br)cn21
MIC (Staphylococcus aureus [1]): ≤ 7.8 ng/mL
MIC (Staphylococcus aureus [2]): ≤ 7.8 ng/mL
MIC (Staphylococcus aureus [3]): ≤ 7.8 ng/mL
MIC (Staphylococcus aureus [4]): 16000 ng/mL (≈ 29.6 µM)
MIC (Staphylococcus aureus [5]): 7.8 ng/mL (≈ 0.0144 µM)
MIC (Staphylococcus aureus [6]): ≤ 7.8 ng/mL
MIC (Staphylococcus aureus [7]): ≤ 7.8 ng/mL
MIC (Staphylococcus aureus [8]): ≤ 7.8 ng/mL
MIC (Staphylococcus aureus [9]): ≤ 7.8 ng/mL
MIC (Staphylococcus aureus [10]): ≤ 7.8 ng/mL
MIC (Staphylococcus aureus [11]): ≤ 7.8 ng/mL
MIC (Staphylococcus aureus [12]): ≤ 7.8 ng/mL
MIC (Staphylococcus aureus [13]): ≤ 7.8 ng/mL
MIC50 (Staphylococcus aureus [14]): ≤ 7.8 ng/mL
MIC90 (Staphylococcus aureus [14]): ≤ 7.8 ng/mL
MIC (Staphylococcus aureus [15]): 31 ng/mL (≈ 0.0574 µM)
MIC (Staphylococcus aureus [16]): ≤ 7.8 ng/mL
MIC (Staphylococcus aureus [17]): ≤ 7.8 ng/mL
MIC (Staphylococcus aureus [18]): ≤ 7.8 ng/mL
MIC (Staphylococcus aureus [19]): ≤ 7.8 ng/mL
MIC (Staphylococcus aureus [20]): ≤ 7.8 ng/mL
MIC (Staphylococcus aureus [21]): ≤ 7.8 ng/mL
MIC (Staphylococcus aureus [22]): 16000 ng/mL (≈ 29.6 µM)
MIC (Staphylococcus aureus [23]): ≤ 7.8 ng/mL
MIC (Staphylococcus aureus [24]): ≤ 7.8 ng/mL
MIC (Staphylococcus aureus [25]): ≤ 7.8 ng/mL
MIC (Streptococcus pyogenes): 2000 ng/mL (≈ 3.7 µM)
MIC (Staphylococcus aureus [26]): ≤ 7.8 ng/mL
MIC (Staphylococcus aureus [27]): ≤ 7.8 ng/mL
MIC (Staphylococcus aureus [28]): ≤ 7.8 ng/mL
MIC (Staphylococcus aureus [29]): ≤ 7.8 ng/mL
MIC (Staphylococcus aureus [30]): ≤ 7.8 ng/mL
MIC (Staphylococcus aureus [31]): ≤ 7.8 ng/mL
MIC (Staphylococcus aureus [32]): ≤ 7.8 ng/mL
MIC (Staphylococcus aureus [33]): ≤ 7.8 ng/mL
MIC (Staphylococcus aureus [34]): ≤ 7.8 ng/mL
MIC (Staphylococcus aureus [35]): ≤ 7.8 ng/mL
MIC (Staphylococcus aureus [36]): ≤ 7.8 ng/mL
MIC (Staphylococcus aureus [37]): ≤ 7.8 ng/mL
MIC (Staphylococcus aureus [38]): ≤ 7.8 ng/mL
MIC (Staphylococcus aureus [39]): ≤ 7.8 ng/mL
MIC (Staphylococcus aureus [40]): ≤ 7.8 ng/mL
MIC (Staphylococcus aureus [41]): ≤ 7.8 ng/mL
MIC (Staphylococcus aureus [42]): ≤ 7.8 ng/mL
MIC (Staphylococcus aureus [43]): ≤ 7.8 ng/mL
MIC (Staphylococcus aureus [44]): ≤ 7.8 ng/mL
MIC (Staphylococcus aureus [45]): ≤ 7.8 ng/mL
MIC (Staphylococcus aureus [46]): ≤ 7.8 ng/mL
